PMC7504215, “Copper(II) Complexes with Mixed Heterocycle Ligands as Promising Antibacterial and Antitumor Species” (Molecules, 2020)

Key:
plasmid pRSII325 = assay: Nuclease activity assay, gel electrophoresis; assay type: biochemical; details: for Nuclease activity in the presence of H2O2: 3 µM compound + 1 mM H2O2, 1 h at 37 °C; for Nuclease activity in the presence of ascorbate: 3 µM compound + 1 mM ascorbate; for Nuclease activity in the presence of ascorbate / Nuclease activity, compound alone: 1 h at 37 °C; for Nuclease activity, compound alone: 3 µM compound, no activating agent
Protocol: The nuclease activity of the compounds was determined using plasmid pRS325II DNA, which was a gift from Steven Haase (Addgene plasmid #35467, 6835 base pairs). The plasmid was amplified in Escherichia coli by transforming One Shot® TOP10 chemically competent E. coli from Invitrogen, Thermo Fisher Scientific (Vilnius, Lithuania). Plasmid was isolated from positive colonies using a PureLink™ HiPure Plasmid Miniprep Kit from Invitrogen, Thermo Fisher Scientific (Vilnius, Lithuania). Plasmid (200 ng/sample) was exposed to 3 µM compounds in the presence of 1 mM hydrogen peroxide (to exploit the Cu(II/III) redox couple) or 1 mM ascorbic acid (to exploit the Cu(I/II) redox couple). The DNA cleavage experiments for the complexes were done in a 9/1 (v/v) ratio of 50 mM Tris-HCl buffer, pH 8, and DMSO. The samples were incubated for 1 h at 37 °C before a bromophenol blue/xylene cyanol-based loading dye (Roth, Germany) was added to the samples. Partial cleavage of the plasmid to linear form was done with the restriction enzyme EcoRI (Promega, USA) by incubation for 5 min at 37 °C. The samples were loaded on a 1% (w/v) agarose gel containing 1 μg/mL EtBr in 1 × TAE (Tris–acetic acid–EDTA) buffer. Electrophoresis was performed at 100 V for 45 min in 1 × TAE buffer. The images of the fluorescent ethidium bromide-stained gels were captured using a gel documentation system (Doc-Print II, Vilber Lourmat, France). The cleavage experiments were done six times, with similar results. One representative gel is shown.

E. coli 5 ESBL [1] = assay: MIC assay, liquid medium microdilution (planktonic growth); assay type: cell-based, Escherichia coli; details: E. coli 5 ESBL, 24 h at 37 °C
Protocol: (§1) The antibacterial assays were performed on Gram-negative (Escherichia coli ATCC 25922, E. coli 5, Pseudomonas aeruginosa ATCC 27853, P. aeruginosa ATCC 9027) and Gram-positive (Staphylococcus aureus ATCC 25923, S. aureus ATCC 6538, MRSA (Meticillin-resistant S. aureus) 388, ATCC, American Type Culture Collection) bacterial strains. Microbial suspensions (1.5 × 10^8 CFU/mL; colony forming units (CFU)) corresponding to 0.5 McFarland density obtained from 15 to 18-h bacterial cultures developed on solid media were used. The antimicrobial activity was tested on Mueller–Hinton agar medium.
(§2) The quantitative assay of the antimicrobial activity was performed by the liquid medium microdilution method, in 96-well multi-well plates, to establish the minimal inhibitory concentration (MIC). For this purpose, serial two-fold dilutions of the compounds ranging between 1.000 and 1.95 μg/mL were performed in a 200 μL volume of broth and each well was seeded with 50 μL microbial inoculums. Sterility control (wells containing only culture medium) and culture controls (wells containing culture medium seeded with the microbial inoculum) were used. The influence of the DMSO solvent was also quantified in a series of wells containing DMSO, diluted accordingly with the dilution scheme used for the complexes. The plates were incubated for 24 h at 37 °C, and MIC values were considered as the lowest concentration of the tested compound that inhibited the visible growth of the microbial overnight cultures.

E. coli 25922 [2] = assay: as above; assay type: cell-based, Escherichia coli; details: E. coli 25922, 24 h at 37 °C
Protocol: as §1, §2

E. coli 5 ESBL [3] = assay: MBEC assay, micro-titer method (biofilm); assay type: cell-based, Escherichia coli
Protocol: as §1
(§3) The assessment of the complexes’ influence on the microbial ability to colonize an inert substratum with the establishment of the minimal biofilm eradication concentration (MBEC) was performed by the micro-titer method, following previously described protocols. The absorbance at 490 nm was measured with an Apollo LB 911ELISA (Berthold Technologies GmbH & Co. KG, Waltham, MA, USA) reader. All experiments were performed in triplicates.

E. coli 25922 [4] = assay: MBEC assay, micro-titer method (biofilm); assay type: cell-based, Escherichia coli
Protocol: as §1, §3

λ-DNA = assay: UV-Vis absorption titration with DNA; assay type: binding, bacteriophage lambda; details: 3 μM complex, increasing λ-DNA, Tris/HCl/NaCl buffer pH 8
Protocol: To determine whether compounds have the capacity to interact with DNA, 48,500 base-pairs of genomic DNA from bacteriophage lambda (λ-DNA, Promega. Madison USA) was used. A stock solution of 10 µM λ-DNA (base-pair concentration) was prepared in 10 mM Tris/HCl buffer containing 1 mM NaCl, pH 8.
The UV-Vis absorption titration experiments were done maintaining constant the complex concentration (3 µM) and increasing the concentration of λ-DNA, in Tris-HCl/NaCl buffer solution, at room temperature, until a saturation state was achieved. After DNA addition, the solutions were allowed to equilibrate for 5 min at room temperature. The UV-Vis absorption spectra were recorded with a Jasco V-630 spectrophotometer, using a 10 mm quartz cell. Stock solutions of compounds were prepared in DMSO (1 mM) and diluted to 3 µM in 10 mM Tris/HCl containing 1 mM NaCl, pH 8.

S. aureus 25923 = assay: MBEC assay, micro-titer method (biofilm); assay type: cell-based, Staphylococcus aureus
Protocol: as §1, §3

SMILES | Nuclease activity in the presence of H2O2 (plasmid pRSII325) | Nuclease activity in the presence of ascorbate (plasmid pRSII325) | Nuclease activity, compound alone (plasmid pRSII325) | MIC (E. coli 5 ESBL [1]) | MIC (E. coli 25922 [2]) | MBEC value (E. coli 5 ESBL [3]) | MBEC value (E. coli 25922 [4]) | Change of UV absorption spectrum on binding to λ-DNA (λ-DNA) | MBEC value (S. aureus 25923)
Cc1cc(-c2ccccc2)nc2ncnn12.[Cu+2].[O-][Cl+3]([O-])([O-])[O-].[O-][Cl+3]([O-])([O-])[O-].c1ccc(-c2ccccn2)nc1.c1ccc(-c2ccccn2)nc1 [(1), [Cu(bpy)2(pmtp)](ClO4)2] | led to DNA degradation | led to DNA degradation | caused plasmid relaxation to the NC form | 0.40 mM | 0.20 mM | 0.40 mM | 0.40 mM | decrease in the absorption intensity of the band located at 290 nm | –
Cc1cc(-c2ccccc2)nc2ncnn12.[Cu+2].[O-][Cl+3]([O-])([O-])[O-].[O-][Cl+3]([O-])([O-])[O-].c1cnc2c(c1)ccc1cccnc12.c1cnc2c(c1)ccc1cccnc12 [(2), [Cu(phen)2(pmtp)](ClO4)2] | led to DNA degradation | led to DNA degradation | caused plasmid relaxation to the NC form | 0.05 mM | 0.02 mM | 0.05 mM | 0.02 mM | hypochromism observed for the band at 270 nm | 0.01 mM
